From patent US8716279B2, “Pharmaceutical compositions of clonazepam and method of use thereof” (Jazz Pharmaceuticals, Inc., priority 2006, dated 2014)

Experiments:
[1] = Human pharmacokinetic, safety and tolerability study (oral, intravenous, intranasal cross-over); details: metabolite after 1 mg clonazepam
Method: The human pharmacokinetics, safety, and tolerability of the clonazepam compositions of the present invention formulated for intranasal delivery for therapeutic applications are evaluated using standard clinical procedures. Clonazepam compositions formulated for intranasal delivery are provided, for example, for application by the participants to intranasal mucosa.
A primary objective of initial studies in humans is to determine and compare pharmacokinetic profiles of three dosage forms of clonazepam: oral, i.v., and intranasal, following single administration. An example of such a study in humans is a cross-over study performed in 12 healthy male volunteers. Plasma and urine level of clonazepam and 7-amino-clonazepam are determined, for example, using HPLC and UV detection. […] Further the initial studies in humans are used to determine local tolerability of intranasal formulation using questionnaire and the Visual Analog Scale (VAS). VAS is a validated instrument that has been used in numerous studies to quantify subjective opening of the nasal passages. In addition, cognitive, sleepiness and mood effects are evaluated using questionnaires and scales (see, e.g., Example 10 below). Further, attention and vigilance may be evaluated using, for example, LEEDS Psychomotor Multiple Choice Reaction Time (MCRT) testing.
A human pharmacokinetic study was carried out as described in Example 8.
15 young, healthy male volunteers received a single dose of 1 mg clonazepam by oral, intravenous and intranasal routes in a three-period cross-over design.

[2] = Spray pattern of solvent matrices from Pfeiffer unit-dose devices; assay type: physicochemical; details: 100 μL, Pfeiffer unit-dose device, 20-25° C.
Method: (§1) Fourteen representative solvent matrices used for clonazepam formulations were tested for spray pattern and compared with water. The solvent mixtures were made up, spiked with minute amounts of Coomassie Brilliant Blue Dye and 100 μL were subsequently filled into Pfeiffer unit-dose devices (Pfeiffer of America, Princeton, N.J.). To measure the spray pattern, the devices were actuated below a sheet of paper that was located 3 cm above the spray nozzle. All measurements were made at ambient room temperature (20-25° C.). The smallest (Dmin) and the largest (Dmax) diameter of the blue pattern formed on the sheet of paper were measured and the results used to calculate the Dmax/Dmin ratio, the area of the pattern and the average spray angle. The plume area at 3 cm was calculated using the equation for the area of an ellipse using the half of the two diameters as the ellipse radii. Viscosity of all formulations was measured using Brookfield DV-I viscometer (Brookfield Engineering Laboratories, Inc., Middleboro, Mass.).

[3] = Viscosity of solvent matrices; assay type: physicochemical; details: for measured viscosity: Gilmont falling ball viscometer
Method: as §1
As weather may dictate substantially different conditions of use, the effect of temperature on viscosity was determined. A Gilmont falling ball viscometer was filled with diethylene glycol monoethyl ether and calibrated for several hours at each temperature.

With `Nc1ccc2c(c1)C(c1ccccc1Cl)=NCC(=O)N2` [7-Amino-clonazepam] the “mean AUCt” value ([1]; intranasal route) was 16.9 ng·h/mL, the “mean Cmax” value ([1]; intranasal route, 24-hour sampling) was 1.17 ng/mL and the “mean AUCt” value ([1]; intravenous route) was “approximately 30 ng·h/mL”. For the same compound, the “mean Cmax” value ([1]; intravenous route) was “approximately 2 ng/mL”, the “mean AUCt” value ([1]; oral route) was “approximately 30 ng·h/mL” and the “mean Cmax” value ([1]; oral route) was “approximately 2 ng/mL”.
In the case of `O` [Water], the “Plume area at 3 cm (cm^2)” value [2] is reported as 15.52 cm^2, the “Ratio Dmax/Dmin” value [2] is reported as 1.10 and the “Avg. viscosity (cP)” value ([3]; Brookfield DV-I viscometer, solvent matrix without clonazepam) is reported as 1.0 cP.
`CCOCCOCCO` [diethylene glycol monoethyl ether, Diethylene glycol monoethyl ether] showed a measured viscosity ([3]; 8° C.) of 5.4 cP, a measured viscosity ([3]; 23° C.) of 3.8 cP and a measured viscosity ([3]; 40° C.) of 3.1 cP. It also gave a measured viscosity ([3]; −17° C.) of 6.6 cP.
